In the METLIN SMRT retention time set (Domingo-Almenara et al. 2019) one finds RP-LC retention time data, which are given here for 79 molecules.

The data set in a line: gradient 5% acetonitrile 3 min, to 50% in 2 min, to 85% in 15 min, held 3 min, 100 µL/min. The note with it: column: Zorbax Extend-C18 2.1 x 50 mm; eluents: water / acetonitrile, 0.1% formic acid. In short, it runs like this: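 The system's dead and dwell volumes were 40 μL and 900 μL, with a Zorbax Extend-C18 column (2.1 × 50 mm, 1.8 μm) run at 100 μL/min in water and acetonitrile containing 0.1% formic acid each. Pure standards were analyzed in mixtures of ~100 molecules by HPLC–quadrupole time-of-flight mass spectrometry in positive and negative ionization mode. Retention time was assigned from computationally picked, manually inspected adduct peaks.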
Molecule `O=C(NCc1ccc(N2CCOCC2)cc1)c1cn2c(n1)CCCC2` had an RP-LC retention time of 586 s. Regarding `COc1ccc(C(=O)NC(C)C(=O)Nc2nc3ccccc3[nH]2)cc1` (centres undefined), the RP-LC retention time is 648 s. `CC(C)(C)c1cc(C(=O)Nc2ccccc2F)nc2ccnn12`: the RP-LC retention time came to 1380 s. `Cc1ccc(CNC(=O)N2C[C@@H](F)C[C@H]2C(=O)N2CCc3ccccc3C2)cc1` gave an RP-LC retention time of 887 s. `Cc1ccc(F)cc1NC(=O)Cn1nc2cc(-c3ccccn3)nc(C)n2c1=O`: the RP-LC retention time turned out to be 767 s. For `CCN1C(=O)c2cccnc2Sc2cc(NC(=O)COc3ccc(F)cc3)ccc21` the value was 872 s; for `CN(C)[C@@H]1CN(C(=O)c2ccc(F)cc2Cl)C[C@H]1CO`, 553 s; for `CC(=O)N1CCc2cc(-c3ccc(C(=O)NCCN4CCCC4)cc3)ccc21`, 607 s. Consider `COCc1nc(N(C)Cc2ccccc2)ncc1C(=O)O`, for which the RP-LC retention time is 804 s.

Take `COc1ccc(Cn2nc3c(S(=O)(=O)N4CCN(c5ccc(F)cc5)CC4)cccn3c2=O)cc1`: the RP-LC retention time was determined as 905 s. Take `Cc1ccc2c(c1)N(c1ccc(N(C)C)cc1)C=C(C(=O)N1CCCC1)S2(=O)=O`: the RP-LC retention time turned out to be 874 s.

In turn, `O=S(=O)(Nc1ccc(F)cc1F)c1c[nH]c2ncccc12` had an RP-LC retention time of 722 s. `Cc1onc(-c2ccccc2Cl)c1C(=O)Nn1cnc2c(cnn2C(C)(C)C)c1=O` returned an RP-LC retention time of 864 s. Molecule `Cc1ccc(-c2cn3c(CC(=O)NCc4ccc(F)cc4)csc3n2)cc1C` displayed an RP-LC retention time of 843 s. To `CSCc1csc(NC(=O)C2CCCC2)n1` belongs 782 s; to `CCCCC(=O)N1CCN(c2ccc(=O)n(-c3ccc(Cl)cc3)n2)CC1`, 829 s; to `O=C(C1CCCC1)N1CCCCC1c1nc(C2CC2)n[nH]1` (centres undefined), 676 s.

As to `Cc1cc(C(=O)Nc2nc3ccc(S(=O)(=O)N(C)C)cc3s2)on1`, the RP-LC retention time is 740 s. To `CCOC(=O)c1ccc(N2C=C(C#N)S(=O)(=O)c3ccc(Cl)cc32)cc1` belongs 1020 s; to `COc1ccc(NC(=O)Cn2cc(C(=O)C3CC3)c3ccccc32)cc1`, 864 s. For `Cc1ccc(CNC(=O)c2ccc3ncnc(N4CCCCC4)c3c2)o1` the value was 637 s. As for `O=C(NC1CCN(c2nnc3ccc(Cl)cn23)CC1)c1ccco1`, the RP-LC retention time was 606 s.

As for `COc1ccc(OC)c(NC(=O)N2CCc3c(c(-c4nnc(-c5ccc(F)cc5)o4)nn3C)C2)c1`, the RP-LC retention time turned out to be 876 s.

`CCSc1nc2ccc(NS(=O)(=O)c3ccc4c(c3)CCC4)cc2s1`: the RP-LC retention time is 1110 s.

On to `CCNc1cc(C)nc(N2CCN(C(=O)c3ccccc3)CC2)n1`, for which the RP-LC retention time is 616 s. In turn, `Clc1ccc(-c2noc3ncnc(N4CCN(c5ccccn5)CC4)c23)cc1` came in with an RP-LC retention time of 697 s. For `COc1ccc2c(c1)C=C(C(=O)NCC(=O)c1cccs1)C=CO2`, the RP-LC retention time worked out at 879 s.

Molecule `COc1ccc(C)cc1NC(=O)N1CCc2cn(C)c3cccc(c23)C1` registered an RP-LC retention time of 822 s. As for `COc1ncc(C(=O)NCCc2ccc(Cl)cc2)cn1`, the RP-LC retention time worked out at 788 s.

In turn, `CCn1nc(C(=O)Nc2nnc(-c3cc4ccccc4o3)o2)cc1C` gave an RP-LC retention time of 770 s.

Molecule `Cc1ccc(C)c(NC(=O)Cn2nc(N(C)C)c3ccccc3c2=O)c1` returned an RP-LC retention time of 862 s. For `CCn1c(C2CCN(C(=O)c3ccc(Br)o3)C2)nc2cccnc21` (centres undefined) the value was 678 s; for `O=C(Cc1ccc(Br)cc1)NC1CCN(c2cc(-c3cccs3)[nH]n2)C1` (centres undefined), 767 s. For `CCOC(=O)c1cccc(NC2=NS(=O)(=O)C(c3ccc(F)cc3)=C2C)c1` the value was 927 s; for `Cc1ccc(CNC(=O)C2(C)CN(S(C)(=O)=O)CC(=O)N2c2ccc(C(C)C)cc2)cc1` (centres undefined), 935 s; for `Cc1cccc(S(=O)(=O)N2CC3CN(C(=O)c4cnccn4)CC(C2)O3)c1`, 688 s.

`COc1cccc(C(C)NC(=O)C2CCCN(c3nccnc3Sc3ccc(C)cc3)C2)c1` (centres undefined) had an RP-LC retention time of 1120 s.

Turning to `COc1ccccc1NC(=O)N1CCCC1c1nncn1-c1ccccc1` (centres undefined), the RP-LC retention time turned out to be 711 s.

`O=c1[nH]cnc2scc(-c3ccc(Cl)cc3)c12` showed an RP-LC retention time of 734 s.

As for `COc1ccccc1CNC(=O)Cn1nc(C)c2sc(-c3ccccc3)nc2c1=O`, the RP-LC retention time turned out to be 884 s. The molecule `O=C1C(=O)N(Cc2ccc(C(=O)N3CCCC3)cc2)CCN1Cc1ccc(F)cc1` returned an RP-LC retention time of 702 s. As to `O=C1NC2(CCN(C(=O)c3cc(F)cc(F)c3)CC2)Nc2cc(Cl)ccc21`, the RP-LC retention time was 774 s. As to `CS(=O)(=O)NCc1ccc2c(c1)CCN2C(=O)c1ccccc1`, the RP-LC retention time is 733 s. For `Cc1noc(C)c1S(=O)(=O)N1CCC(c2noc(-c3ccccn3)n2)C1` (centres undefined) the value was 794 s. Molecule `Cc1c(C(=O)NC2CCCC2)cnn1-c1ccc(-c2nc(C3CC3)no2)cn1` returned an RP-LC retention time of 999 s.

As for `Cc1cccc2c(=O)n(C3CCN(S(=O)(=O)c4ccccc4)CC3)cnc12`, the RP-LC retention time is 921 s.

For `COc1cccc(Cn2c(=O)c3sccc3n(Cc3nc(-c4ccc(F)cc4)no3)c2=O)c1`, the RP-LC retention time stood at 1070 s. For `CC1=C(c2ccc(C)cc2)S(=O)(=O)N=C1N1CCCN(C(=O)Cc2ccsc2)CC1` the value was 847 s; for `CCN(CC)c1cc2c(cc1NC(=O)COc1ccc(Cl)cc1)n(C)c(=O)c(=O)n2C`, 965 s; for `CS(=O)(=O)N1CC[C@H]2CN(Cc3cn[nH]c3-c3ccc(F)cc3)C[C@@]2(CF)C1`, 576 s. `Cc1cccc(OCC(=O)N2CCN(c3cc(C)n4c(C)nnc4n3)CC2)c1` registered an RP-LC retention time of 614 s. To `O=C(NCc1cccnc1Oc1ccccc1)c1cnn2cccnc12` belongs 695 s. For `CCc1ccc(S(=O)(=O)N2CCc3c(c(-c4nnc(-c5ccccc5)o4)nn3C)C2)cc1` the value was 1030 s; for `CC(C)NC(=O)N1CCCC(c2cccc(C(=O)NCCCN3CCOCC3)c2)C1` (centres undefined), 598 s; for `CN1c2ccc(Cl)cc2C(=O)NC12CCN(C(=O)NCc1ccccc1)CC2`, 789 s.

In the case of `c1cncc(-c2nnc3sc(-c4ccc5c(c4)OCCO5)nn23)c1`, the RP-LC retention time came out at 827 s. In the case of `CCCn1c(CCNC(=O)c2ccccc2F)nc2cccnc21`, the RP-LC retention time worked out at 644 s. The molecule `O=C(CC1CCN(C(=O)c2cc3ccccc3[nH]2)CC1)NCCN1CCCC1` registered an RP-LC retention time of 559 s. To `Cc1cc2c(cc1S(=O)(=O)N1CCCC1C(=O)NCCCc1ccccc1)OCC(=O)N2` (centres undefined) belongs 816 s. To `CCc1ccc(NC(=O)C2CCN(S(=O)(=O)c3ccc4c(c3)S(=O)(=O)N=CN4)CC2)cc1` belongs 806 s; to `Cn1nc(C(=O)NCc2ccc(F)cc2)c2c1CCN(C(=O)c1ccc(Br)o1)C2`, 790 s; to `CCOc1ccccc1NC(=O)C1CCc2nc(N3CCOCC3)ncc2C1` (centres undefined), 777 s.

In turn, `Cc1cccc(OCc2nc(-c3ccc4c(c3)ncn4CCN3CCCC3)no2)c1` had an RP-LC retention time of 673 s. For `Cc1cc(-c2csc(S(=O)(=O)NCCc3ccc(S(N)(=O)=O)cc3)c2)on1` the value was 744 s; for `O=c1c2cc3c(cc2nc(SCc2nc(-c4cccc(F)c4)no2)n1-c1ccc(F)cc1)OCO3`, 1170 s. For `COCCNC(=O)c1cc2c(n(-c3ccc(C(F)(F)F)cc3)c1=O)CCCC2=O` the value was 786 s. With `Cc1sc(-c2noc(C3CCC3)n2)cc1S(=O)(=O)N1CCC(C(=O)NCc2ccco2)CC1`, the RP-LC retention time was 1010 s. For `Cc1noc2nc(CCC(=O)NCCCN3CCc4ccccc4C3)nc(N3CCC(C)CC3)c12` the value was 703 s; for `COc1cc(NC(=O)N2CCC3(CC2)NC(=O)c2ccccc2O3)cc(OC)c1OC`, 685 s; for `O=C(NCC1(c2cccs2)CC1)c1ccsc1`, 791 s. For `CC(=O)c1cccc(NC(=O)Cn2cccc2-c2nc(-c3ccc4c(c3)OCO4)no2)c1` the value was 951 s. For `CCCN1CCN(C(=O)C2CCN(S(=O)(=O)c3cc(-c4noc(CC)n4)sc3C)CC2)CC1` the value was 666 s; for `Cc1ccc(-c2n[nH]c(CCNC(=O)c3ccc(S(=O)(=O)N4CCOCC4)cc3)n2)cc1`, 704 s; for `COc1cc(COc2cc(N)c(Cl)cc2C(=O)CCC2CCN(CCNS(C)(=O)=O)CC2)cc(OC)c1`, 761 s. The molecule `COC(=O)CNC(=O)N1CCCC1c1cccc(F)c1` (centres undefined) returned an RP-LC retention time of 701 s. For `COc1ccc(CNC(=O)Cn2nc3c4ccccc4ncn3c2=O)cc1` the value was 651 s; for `O=C(NCCc1ccccc1)N1CCc2nc(-c3ccc(F)cc3)ncc2C1`, 900 s; for `O=C(c1noc2c1CCCCC2)N1CCN(Cc2ccc3c(c2)OCO3)CC1`, 665 s.

In the case of `Cc1ncsc1CN1CCC(Oc2ccccc2-c2nc(C3CC3)no2)C1` (centres undefined), the RP-LC retention time was 653 s.
